These compounds were tested against T1, TFEB (Mus musculus, UniProt Q9R210) (assay: Expression and distribution of endogenous TFEB in N2a cells (immunostaining, western blot)). Conditions: not given.
T1 construct: the expression and distribution of endogenous TFEB in N2a cells treated with curcumin and its analogs are determined; endogenous in cells; host or cells: N2a cells
T1 sequence (Q9R210 1-475): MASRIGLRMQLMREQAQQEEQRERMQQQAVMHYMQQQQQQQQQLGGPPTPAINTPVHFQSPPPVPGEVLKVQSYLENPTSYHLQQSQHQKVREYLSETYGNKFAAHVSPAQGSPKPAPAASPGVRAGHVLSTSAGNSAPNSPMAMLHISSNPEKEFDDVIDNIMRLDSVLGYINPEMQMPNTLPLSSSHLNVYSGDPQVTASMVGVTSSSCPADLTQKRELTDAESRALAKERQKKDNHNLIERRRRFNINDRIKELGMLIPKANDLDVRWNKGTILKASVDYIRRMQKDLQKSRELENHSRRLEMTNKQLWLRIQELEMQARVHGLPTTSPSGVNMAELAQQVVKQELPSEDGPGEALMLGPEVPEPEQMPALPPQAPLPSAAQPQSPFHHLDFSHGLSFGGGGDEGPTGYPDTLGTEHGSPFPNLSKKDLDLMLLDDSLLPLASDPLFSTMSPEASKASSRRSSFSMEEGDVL
Format: cell-based
Protocol: Cells were treated with curcumin (Cur, 10 μM), A2, B3 and C1 (1 μM) for 12 h. […] Data is quantified by ImageJ software and is presented as mean±SD of three replicates for each treatment conditions. At least 1000 cells are analyzed in each treatment group. *p<0.05 vs. the control (0.1% DMSO). FIG. 4C is a western blot showing the expression of endogenous TFEB. […] Data are presented as the mean±SD from three independent experiments. *p<0.05 vs. the control (0.1% DMSO). FIG. 4E is fluorescence images showing expression of 3×Flag-TFEB in Hela cells having treated with Cur (10 μM), A2, B3 and C1 (1 μM) for 12 h. Torin 1 (1 μM) treatment for 2 h is used as a positive control. Cells were fixed and stained with anti-Flag antibody. […] FIG. 4G is the western blot showing the expression of Flag-tagged TFEB in the cytosolic (Cyt.) and nuclear (Nuc.) fractions. ACTB and H3F3A (H3 histone, family 3A) are used as loading control of cytoplasmic and nuclear fraction, respectively. FIG. 4H is showing the relative intensity of TFEB in the cytosolic and nuclear fractions. Data are presented as the mean±SD from three independent experiments. *p<0.05 vs. the control (0.1% DMSO).
N2a cells are treated with E2, E3 and E4 (1 μM) for 12 hours. Torin 1 (1 μM) treatment for 2 hours is used as a positive control. The cells are fixed and stained with TFEB antibody (green) and DAPI (blue) (FIG. 16A). TFEB translocate into nucleus are quantified. Quantification data (FIG. 16B) are presented as mean±SD of three replicates in a representative experiment. At least 500 cells are analyzed in each treatment group.
N2a cells are treated with E2, E3, and E4 (1 μM) for 12 hours. Torin 1 (1 μM) treatment for 2 hours is used as a positive control. The expression of endogenous TFEB in the cytosolic (Cyt.) and nuclear (Nuc.) fractions are determined by western blotting (FIG. 17A) and quantified (FIG. 17B). TUBB (β-tubulin) and H3F3A (H3 histone, family 3A) are used as loading control of cytoplasmic and nuclear fraction respectively. Quantification data are presented as the mean±SD from three independent experiments. *p<0.05 vs. the control (0.1% DMSO).
Cells are lysed on ice in 1× Lysis Buffer (9803, Life Technologies) with complete protease inhibitor mixture (04693124001, Roche Applied Science). Animal tissues are homogenized in nine volumes of ice-cold PBS supplemented with protease inhibitors. Cytosolic and nuclear fractions are isolated using protocols similar to those described previously. Anti-Flag or TFEB antibody is added to the whole cell lysates and Dynabeads® Protein G (10003D, Life Technologies) is used for immunoprecipitation. Proteins are separated by 10-15% SDS-PAGE, transferred, and blotted with the antibodies described. The blots are then incubated with secondary antibodies or the Clean-Blot IP Detection Reagent (21230, Thermo Scientific) at room temperature for 1 h. The protein signals are detected by ECL kit (32106, Pierce) and quantified using ImageJ software.
Cells are seeded on coverslips placed in 24-well plates. After drug treatment, slices are fixed with 3.7% paraformaldehyde, permeabilized in 0.2% Triton X-100 and blocked with 5% BSA. After blocking, the slices are stained with anti-TFEB (1:200) or anti-Flag (1:500) antibodies overnight at 4° C. Alexa Fluor®488 (green) or Alexa Fluor®594 (red) secondary antibodies (1:500) are added for 1 h at room temperature. After nuclear staining with DAPI, the slices are mounted with FluorSave reagent (345789, Calbiochem). Cells are visualized using an Eclipse 80i fluorescence microscope (Nikon Instruments Inc.)
Cells are lysed on ice in 1× Lysis Buffer (9803, Life Technologies) with complete protease inhibitor mixture (04693124001, Roche Applied Science) and phosphatase inhibitor (B15001, Biotool). Cytosolic and nuclear fractions are isolated using protocols similar to those described previously. Proteins are separated by 10-15% SDS-PAGE, transferred, and blotted with the antibodies described. […]

activity to promote TFEB nucleus translocation, comparison among E series analogs	SMILES
best activity	O=C(/C=C/c1ccccc1I)/C=C/c1ccccc1I [E4]

Same assay, conditions: N2a cells, 1 μM, 12 hours

nuclear accumulation of endogenous TFEB by immunofluorescence compared to vehicle control	nuclear translocation of endogenous TFEB, cytosolic and nuclear fractions by Western blots	SMILES
striking nuclear accumulation	potently induce	O=C(/C=C/c1ccccc1Cl)/C=C/c1ccccc1Cl [E2]
striking nuclear accumulation	potently induce	O=C(/C=C/c1ccccc1Br)/C=C/c1ccccc1Br [E3]
striking nuclear accumulation	potently induce	O=C(/C=C/c1ccccc1I)/C=C/c1ccccc1I [E4]

Same assay, conditions: N2a cells, 12 h; curcumin 10 μM, analogs 1 μM

SMILES	nuclear translocation (distribution) of endogenous TFEB	total levels (expression) of endogenous TFEB
O=C(/C=C/c1cccc(C(F)(F)F)c1)/C=C/c1cccc(C(F)(F)F)c1 [A2, 1,5-bis(3-(trifluoromethyl)phenyl)penta-1,4-dien-3-one]	no effects	no effects
COc1ccccc1/C=C/C(=O)/C=C/c1ccccc1OC [C1, 1,5-bis(2-methoxyphenyl)penta-1,4-dien-3-one]	promotes	increases

More lines, now with the values ahead:

nuclear translocation (distribution) of endogenous TFEB	total levels (expression) of endogenous TFEB	SMILES
no effects	no effects	O=C(/C=C/c1ccc(O)cc1)/C=C/c1ccc(O)cc1 [B3, 1,5-bis(4-hydroxyphenyl)penta-1,4-dien-3-one]
no effects	no effects	COc1cc(/C=C/C(=O)CC(=O)/C=C/c2ccc(O)c(OC)c2)ccc1O [curcumin, Curcumin, reference compound]

— patent US9540299B2, “MTOR-independent activator of TFEB for autophagy enhancement and uses thereof” (Hong Kong Baptist University, priority 2015, dated 2017)
